Test results published in patent publication US20130011347A1, “Personal Care Compositions With Improved Solubility of a Solid Cosmetic Active” (priority 2011, published 2013).

Key:
[1] = Solvency of solvents for hexylresorcinol (visual solubility after storage); conditions: solute hexylresorcinol, 33.5% test solution, approximately 1:2 solute to solvent ratio, soluble = no visible crystals
Method: (§1) In the testing provided below, “soluble” (or “solubilize”), in relation to the solubility of a solid solute being tested, means that no visible crystals may be seen after a prescribed storage period at a storage condition. The storage period can vary. Suitable storage periods include about 24 hours, about 1 week, and about 30 days. Suitable storage conditions include ambient conditions or cold storage at 5° C. (approximately 1 atm). In certain embodiments, solubility may be determined after a 24 hour storage period at ambient conditions. In other embodiments, solubility may be determined after 20 days in cold storage. Other testing parameters may include storage for prolonged time periods (e.g., 30 day, 50 days, 60 days, 90 days) and at variable temperatures (e.g., 5° C., 50° C.).
(§2) The solvency of an isosorbide diester within the scope of the present invention was tested against two conventional, industry standard solvents. […] A test solution of 33.5% hexylresorcinol is prepared with heating to 70° C. Upon reaching 70° C., the examples may be mixed for about 10 minutes. Place mixtures in a covered vial and cool to the storage temperature. Solubility is evaluated for samples stored 24 hours at ambient conditions. Solubility is also evaluated for samples stored for 7 day at 5° C. followed by equilibration to ambient conditions.

[2] = Solvency of solvents for tetrahydrocurcuminoids (THC) (visual solubility after storage); conditions: solute tetrahydrocurcuminoids (THC), 3% test solution, approximately 1:32 solute to solvent ratio, soluble = no visible crystals
[3] = Solvency of solvents for (S)-Equol (visual solubility after storage); conditions: solute (S)-Equol, 6% test solution, approximately 1:16 solute to solvent ratio, soluble = no visible crystals
Method: as §1
as §2, with “solution was” for “solution”, “6% Equol” for “33.5% hexylresorcinol”

[4] = then equilibration to ambient conditions

CCCCCCCCCCCC(=O)N(C)CC(=O)OC(C)C [Isopropyl lauroyl sarcosinate, isopropyl lauroyl sarcosinate]
Soluble: Solubility, 24 hour rest at Ambient Conditions ([1]; prepared at 70° C.) | Solubility, 7 day storage at 5° C. [1, 4] | Solubility, 24 hour rest at Ambient Conditions ([2]; prepared at 70° C.) | Solubility, 7 day storage at 5° C. [2, 4] | Solubility, 24 hour rest at Ambient Conditions ([3]; prepared at 70° C.) | Solubility, 7 day storage at 5° C. [3, 4]
